Earlier results as cited in patent publication US10059967B2, “Microorganisms and processes for producing terephthalic acid and its salts” (Genomatica, Inc., priority 2012, dated 2018).

solubility in aqueous solution (in words): Only slightly soluble
SMILES: Cc1ccc(C(=O)O)cc1 [p-toluate, 4-methylbenzoate]
